Laboratory results from paper PMC3004914, “Classification of Drugs Based on Properties of Sodium Channel Inhibition: A Comparative Automated Patch-Clamp Study” (PLoS ONE, 2010).
Where two headings read alike, the source gives them in different places.

Legend:
[1] = molecular target: T1, rNav1.2 sodium channels (HEK-293 cells) (Rattus norvegicus, UniProt P04775); assay: steady-state inactivation protocol (availability curves), QPatch automated patch-clamp; type: cell-based
Text: (§1) A)–D) Peak amplitudes of evoked currents (5 Hz trains of 5 depolarizations from −90 to −10 mV) are plotted against time. Black dots: Control. Grey dots: Drug perfusion. […] Calculation of properties of inhibition is illustrated. […] E) Calculation of Kr and Ki values from steady-state availability curves.
Standard steady-state inactivation protocols were used to measure the shift of steady-state availability curve caused by the drugs. Currents were evoked by a 10 ms test pulse to −10 mV, preceded by 400 ms pre-pulses from −150 to −30 mV. […] Because the inhibition at hyperpolarized potentials (Inh−150), and the shift of the availability curves (ΔV1/2) are both concentration-dependent properties, we calculated affinities to hyperpolarized and depolarized states (“resting state affinity”: Kr, and “inactivated state affinity”: Ki), which, on the other hand, are concentration-independent characteristics of individual drugs. Calculation of Kr and Ki values are described in Materials and Methods, and illustrated in Figure 1E. State-dependence (SD) was quantified as the ratio Kr/Ki.
(§2) HEK-293 cells stably expressing rNav1.2 sodium channels were obtained from NeuroSearch (Ballerup, Denmark).
(§3) Cells were automatically prepared for application to the chips (centrifuged and washed twice, then resuspended in extracellular solution) as described previously. Composition of the extracellular solution was: (in mM): 140 NaCl, 3 KCl, 1 CaCl2, 1 MgCl2, 0.1 CdCl2, 20 TEA-Cl, 5 HEPES, adjusted to pH 7.3, Osmolality: ∼320 mOsm.
(§4) All electrophysiological experiments were conducted on Qpatch-16 or QPatch HT instruments using QPlate™ chips. For a detailed description of the instrument and the patch-clamp chips see [37], [38]. Data were sampled at a frequency of 25 kHz and filtered at 5 kHz. […] The amplifier was controlled and the data were collected by the Sophion QPatch client software. For initial data analysis the QPatch software was used. Built-in amplifiers provide an improved method for series resistance compensation. Leak subtraction (based on a standard P/n protocol) was used to subtract the capacitive component of currents.
Inactivated affinity (Ki) values were calculated assuming a simple four-state model of drug binding and channel gating, using two separate methods: (1) from the shift of the availability curve (ΔV1/2), the slope of the Boltzmann fit of the availability curve (k) and Kr, using the formula described by Bean, Cohen and Tsien (Ki−ΔV1/2; see Figure 1E), or (2) from the apparent affinity (Kapp) at a certain pre-pulse potential, which was calculated from the inhibition (e.g. Inh−60) as described above, and the availability (h) at the same pre-pulse potential, using the formula from Kuo and Bean (Figure 1E). […] (Arithmetic means and SEM values are given in Results S7.)

[2] = molecular target: T1, rNav1.2 sodium channels (HEK-293 cells); assay: 5 Hz train protocol, QPatch automated patch-clamp; type: cell-based; conditions: for τoff: 500 s assigned where irreversible; for Rev (reversibility): Rev = A5/A1 after washout; for potency estimated from few doses: −90 mV;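 on UD (use-dependence of the inhibition): UD = (A3/A4)/(A1/A2) as ratios of peak amplitudes from Figure 1A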
Text: The dynamics of the onset and offset of inhibition was monitored using 5 Hz trains of five depolarizing pulses from a holding potential of −90 mV to −10 mV. The trains were repeated every 20 s. Drugs were applied after 10 control trains and 10 trains were delivered in the presence of the drug. The drug was then washed out, and the 10 trains were repeated.
We measured inhibition (Inh; from which we calculated IC50 values as described in Materials and Methods), reversibility of inhibition (Rev) and use-dependence (UD), as well as time constant of onset (τon) and offset (τoff). The calculation of IC50, quantification of Rev and UD, and the determination of time constants are illustrated in Figure 1A. Because τon should be concentration-dependent if we assume a single binding reaction, we excluded it from the analyses. […] Comments on the interpretation of these properties (Rev, […] and UD) are in Results S1.
as §1, §2, §3, §4
From this protocol we extracted five parameters, as illustrated in Figure 1A. We calculated inhibition of a single “cc” concentration: Inh = (amplitudectr – amplitudedrug)/amplitudectr.

[3] = human plasma, cited from earlier work
[4] = HEK293, 100 μM, −90 mV holding potential, 5 Hz train, read-out: Inh (inhibited fraction)
[5] = HEK293, calculated from Inh at single concentration 100 μM, 5 Hz train, read-out: IC50
[6] = HEK293, 100 µM, read-out: Inh (inhibited fraction) at holding potential −150 mV
[7] = arithmetic mean, 100 µM, read-out: Ki-Kapp arith
[8] = arithmetic mean, 100 µM, read-out: Ki-ΔV1/2 arith
[9] = arithmetic mean, 100 µM, read-out: Kr arith
[10] = geometric mean, from Inh at −150 mV, 100 µM, read-out: Kr (resting state affinity)
[11] = geometric mean, from apparent affinity, 100 µM, read-out: Ki−Kapp (inactivated state affinity)
[12] = geometric mean, from shift of availability curve, 100 µM, read-out: Ki−ΔV1/2 (inactivated state affinity)

T1 sequence (P04775 whole entry, the tested form may be a part): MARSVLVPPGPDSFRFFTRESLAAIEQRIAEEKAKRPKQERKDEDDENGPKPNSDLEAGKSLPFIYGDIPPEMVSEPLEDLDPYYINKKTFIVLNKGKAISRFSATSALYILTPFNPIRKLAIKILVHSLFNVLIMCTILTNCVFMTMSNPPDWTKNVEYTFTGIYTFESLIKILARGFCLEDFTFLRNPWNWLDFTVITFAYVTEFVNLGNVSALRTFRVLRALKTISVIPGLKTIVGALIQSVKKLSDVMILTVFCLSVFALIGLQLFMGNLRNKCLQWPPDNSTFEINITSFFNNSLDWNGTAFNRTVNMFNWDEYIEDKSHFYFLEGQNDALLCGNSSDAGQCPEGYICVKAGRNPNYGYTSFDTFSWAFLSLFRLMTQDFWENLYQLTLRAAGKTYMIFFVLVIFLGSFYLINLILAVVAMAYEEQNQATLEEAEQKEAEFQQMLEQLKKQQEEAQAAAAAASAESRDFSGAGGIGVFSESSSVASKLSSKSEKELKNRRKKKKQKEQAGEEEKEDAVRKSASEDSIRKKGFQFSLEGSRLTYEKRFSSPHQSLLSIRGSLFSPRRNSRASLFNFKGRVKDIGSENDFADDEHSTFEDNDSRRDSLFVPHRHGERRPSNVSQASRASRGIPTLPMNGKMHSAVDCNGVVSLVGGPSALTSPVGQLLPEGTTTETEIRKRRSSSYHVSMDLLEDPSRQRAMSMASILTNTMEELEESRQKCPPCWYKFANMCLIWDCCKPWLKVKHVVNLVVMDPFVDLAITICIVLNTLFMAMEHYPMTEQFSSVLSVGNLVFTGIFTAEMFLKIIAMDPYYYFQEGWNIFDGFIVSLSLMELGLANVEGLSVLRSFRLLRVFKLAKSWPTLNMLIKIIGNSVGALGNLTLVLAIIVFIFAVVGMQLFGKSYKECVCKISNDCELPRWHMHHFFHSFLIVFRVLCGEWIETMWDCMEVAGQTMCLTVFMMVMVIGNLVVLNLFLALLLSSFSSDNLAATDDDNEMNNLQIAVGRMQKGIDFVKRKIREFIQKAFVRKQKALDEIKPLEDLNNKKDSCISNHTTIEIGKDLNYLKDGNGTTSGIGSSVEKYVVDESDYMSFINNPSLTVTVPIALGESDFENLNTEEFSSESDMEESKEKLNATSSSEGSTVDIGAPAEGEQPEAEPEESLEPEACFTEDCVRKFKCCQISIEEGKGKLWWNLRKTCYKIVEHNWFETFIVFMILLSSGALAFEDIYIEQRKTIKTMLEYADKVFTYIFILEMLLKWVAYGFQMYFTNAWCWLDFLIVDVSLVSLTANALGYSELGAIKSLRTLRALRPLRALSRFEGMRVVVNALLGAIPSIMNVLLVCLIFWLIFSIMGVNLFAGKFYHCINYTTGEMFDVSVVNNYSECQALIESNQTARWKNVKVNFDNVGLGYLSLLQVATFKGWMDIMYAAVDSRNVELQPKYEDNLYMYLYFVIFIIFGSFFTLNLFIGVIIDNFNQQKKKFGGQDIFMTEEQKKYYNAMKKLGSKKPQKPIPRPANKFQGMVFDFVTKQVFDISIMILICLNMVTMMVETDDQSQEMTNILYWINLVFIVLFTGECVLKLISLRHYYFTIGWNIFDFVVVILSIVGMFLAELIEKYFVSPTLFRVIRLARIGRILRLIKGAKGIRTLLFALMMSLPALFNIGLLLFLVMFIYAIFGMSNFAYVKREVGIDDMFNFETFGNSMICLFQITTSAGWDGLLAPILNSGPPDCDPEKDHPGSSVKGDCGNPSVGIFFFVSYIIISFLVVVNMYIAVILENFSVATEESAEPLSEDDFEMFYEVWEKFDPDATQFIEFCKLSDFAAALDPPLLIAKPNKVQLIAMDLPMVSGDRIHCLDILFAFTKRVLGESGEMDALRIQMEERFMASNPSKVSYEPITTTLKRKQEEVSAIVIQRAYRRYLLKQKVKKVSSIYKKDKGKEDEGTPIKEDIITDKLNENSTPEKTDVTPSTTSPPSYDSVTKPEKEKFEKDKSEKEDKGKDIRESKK

SMILES: CNCCC(Oc1ccccc1OC)c1ccccc1 (stereo not shown) [NIS, Nisoxetine]
- ΔV1/2 (shift of availability curve) ([1]; 100 μM): −6.68 mV
- inhibition at 100 µM ([1]; HEK293, read-out: Inh (inhibited fraction) at holding potential −150 mV): 34%
- Ki ([1]; Ki-Kapp arith, arithmetic mean, 100 µM): 7.63 µM
- Ki ([1]; Ki-ΔV1/2 arith, arithmetic mean, 100 µM): 19.5 µM
- Ki ([1]; Ki−Kapp (inactivated state affinity), geometric mean, from apparent affinity, 100 µM): 7.1 µM
- Ki ([1]; Ki−ΔV1/2 (inactivated state affinity), geometric mean, from shift of availability curve, 100 µM): 19.1 µM
- Kd ([1]; Kr (resting state affinity), geometric mean, from Inh at −150 mV, 100 µM): 194 µM
- Kd ([1]; Kr arith, arithmetic mean, 100 µM): 196 µM
- τon ([2]; 100 μM): 20.71 s
- UD (use-dependence of the inhibition) ([2]; 100 μM, 5 Hz train): 1.33
- τoff ([2]; 100 μM): 23.41 s
- Rev (reversibility) ([2]; 100 μM): 0.66
- inhibition at 100 µM [2, 4]: 57%
- potency estimated from few doses [2, 5]: 75.7 µM
- plasma conc. ([3]; as printed in each cell): 0.05 [46] µg/ml
- plasma conc. ([3]; as printed in the µg/ml cell): 0.159 µM

SMILES: O=C(CCCN1CCC(O)(c2ccc(Cl)cc2)CC1)c1ccc(F)cc1 [HAL, Haloperidol]
- plasma conc. ([3]; as printed in each cell): 0.02 [44] µg/ml
- plasma conc. ([3]; as printed in the µg/ml cell): 0.053 µM

SMILES: O=C(O)Cc1ccccc1Nc1c(Cl)cccc1Cl [DIC, Diclofenac]
- inhibition at 100 µM [1, 6]: 3%
- Ki [1, 7]: 98.4 µM
- Ki [1, 8]: 102 µM
- Kd [1, 9]: 3300 µM
- Kd [1, 10]: 3120 µM
- Ki [1, 11]: 87.8 µM
- Ki [1, 12]: 81 µM
- τon ([2]; 100 μM): 7.19 s
- UD (use-dependence of the inhibition) ([2]; 100 μM, 5 Hz train): 1.01
- τoff ([2]; 100 μM): 26.43 s
- Rev (reversibility) ([2]; 100 μM): 0.95
- potency estimated from few doses [2, 5]: 561 µM
- plasma conc. ([3]; as printed in each cell): 2 [44] µg/ml
- plasma conc. ([3]; as printed in the µg/ml cell): 6.287 µM

SMILES: CNCCCC12CCC(c3ccccc31)c1ccccc12 [MPR, Maprotiline]
- plasma conc. ([3]; as printed in each cell): 0.25 [45] µg/ml
- plasma conc. ([3]; as printed in the µg/ml cell): 0.797 µM

SMILES: Fc1ccc(C(c2ccc(F)cc2)N2CCN(C/C=C/c3ccccc3)CC2)cc1 [FLR, Flunarizine]
- plasma conc. ([3]; as printed in each cell): 0.06 [58] µg/ml
- plasma conc. ([3]; as printed in the µg/ml cell): 0.113 µM

SMILES: CCc1nn(CCCN2CCN(c3cccc(Cl)c3)CC2)c(=O)n1CCOc1ccccc1 [NFZ, Nefazodone]
- ΔV1/2 (shift of availability curve) ([1]; 30 μM): −17.4 mV
- inhibition at 30 µM ([1]; HEK293, 30 µM, read-out: Inh (inhibited fraction) at holding potential −150 mV): 9%
- Ki ([1]; arithmetic mean, 30 µM, read-out: Ki-Kapp arith): 1.1 µM
- Ki ([1]; arithmetic mean, 30 µM, read-out: Ki-ΔV1/2 arith): 1.05 µM
- Kd ([1]; geometric mean, from Inh at −150 mV, 30 µM, read-out: Kr (resting state affinity)): 567 µM
- Ki ([1]; geometric mean, from apparent affinity, 30 µM, read-out: Ki−Kapp (inactivated state affinity)): 0.92 µM
- Ki ([1]; geometric mean, from shift of availability curve, 30 µM, read-out: Ki−ΔV1/2 (inactivated state affinity)): 0.87 µM
- τon ([2]; 30 μM): 8.75 s
- UD (use-dependence of the inhibition) ([2]; 30 μM, 5 Hz train): 1.22
- τoff ([2]; 30 μM): 10.93 s
- Rev (reversibility) ([2]; 30 μM): 0.51
- inhibition at 30 µM ([2]; HEK293, 30 μM, −90 mV holding potential, 5 Hz train, read-out: Inh (inhibited fraction)): 39%
- potency estimated from few doses ([2]; HEK293, calculated from Inh at single concentration 30 μM, 5 Hz train, read-out: IC50): 46.4 µM
- plasma conc. ([3]; as printed in each cell): 1.52 [48] µg/ml
- plasma conc. ([3]; as printed in the µg/ml cell): 3.007 µM

SMILES: CN1CCN2c3ccccc3Cc3ccccc3C2C1 (stereo not shown) [MIA, Mianserin]
- plasma conc. ([3]; as printed in each cell): 0.01 [47] µg/ml
- plasma conc. ([3]; as printed in the µg/ml cell): 0.037 µM

SMILES: NS(=O)(=O)Cc1noc2ccccc12 [ZON, Zonisamide]
- inhibition at 300 µM ([2]; HEK293, 300 μM, −90 mV holding potential, 5 Hz train, read-out: Inh (inhibited fraction)): 9%
- potency estimated from few doses ([2]; HEK293, calculated from Inh at single concentration 300 μM, 5 Hz train, read-out: IC50): 3030 µM
- plasma conc. ([3]; as printed in each cell): 28.4 [44] µg/ml
- plasma conc. ([3]; as printed in the µg/ml cell): 133.82 µM

SMILES: NCC1(CC(=O)O)CCCCC1 [GAB, Gabapentin]
- potency estimated from few doses ([2]; HEK293, read-out: IC50, calculated from Inh at single concentration 300 μM, 5 Hz train): 14700 µM
- inhibition at 300 µM ([2]; HEK293, read-out: Inh (inhibited fraction)): 3%
- plasma conc. ([3]; as printed in each cell): 4 [44] µg/ml
- plasma conc. ([3]; as printed in the µg/ml cell): 23.359 µM

SMILES: CC(NC(C)(C)C)C(=O)c1cccc(Cl)c1 (stereo not shown) [BPR, Bupropion]
- inhibition at 100 µM [1, 6]: 16%
- Ki [1, 7]: 27.4 µM
- Ki [1, 8]: 29.1 µM
- Kd [1, 9]: 733 µM
- Kd [1, 10]: 604 µM
- Ki [1, 11]: 25.5 µM
- Ki [1, 12]: 26 µM
- τon ([2]; 100 μM): 4.6 s
- UD (use-dependence of the inhibition) ([2]; 100 μM, 5 Hz train): 1.04
- τoff ([2]; 100 μM): 12.45 s
- Rev (reversibility) ([2]; 100 μM): 0.92
- inhibition at 100 µM [2, 4]: 15%
- potency estimated from few doses [2, 5]: 565 µM

SMILES: CN1CCN(C2=Nc3cc(Cl)ccc3Nc3ccccc32)CC1 [CLZ, Clozapine]
- plasma conc. ([3]; as printed in each cell): 0.55 [44] µg/ml
- plasma conc. ([3]; as printed in the µg/ml cell): 1.671 µM
